Paper PMC6302903, “Protein and Chemical Determinants of BL-1249 Action and Selectivity for K2P Channels” (ACS Chemical Neuroscience, 2018)

Legend:
TREK-1/AAK M3-C = target: T1, TREK-1/AAK M3-C (Mus musculus, UniProt O88454+P97438); assay: TEVC of chimera TREK-1/AAK M3-C; format: cell-based; details: Xenopus oocytes
T1 construct: Trp199 (TREK-1/AAK M3-C); expressed in transfected cells; host or cells: Xenopus laevis oocytes, mRNA injected; chimera built by Gibson assembly
T1 sequence (P97438+O88454 with tags, fused parts or gaps P97438:N200H/P97438:S202P/P97438:Q203P/P97438:T204G/P97438:K205L/P97438:I206V/P97438:I208S/P97438:I209L/P97438:T211A/P97438:I212V/P97438:I213L/P97438:I215L/P97438:F217I/P97438:V220L/P97438:A224L/P97438:L225T/P97438:A227T/P97438:V228F/P97438:I229V/P97438:K231S/P97438:H232Y/P97438:I233M/P97438:G235S/P97438:A238K/P97438:D240E/P97438:V246I/P97438:I247V/P97438:I252V/P97438:A259P/P97438:G261D/P97438:S262G/P97438:D263T/P97438:I264G/P97438:E265Q/P97438:Y266N/P97438:L267S/P97438:D268P/P97438:F269A/P97438:K271Q/P97438:V273L/P97438:V280F/P97438:A287S/P97438:S290T/P97438:M291T/P97438:D294N): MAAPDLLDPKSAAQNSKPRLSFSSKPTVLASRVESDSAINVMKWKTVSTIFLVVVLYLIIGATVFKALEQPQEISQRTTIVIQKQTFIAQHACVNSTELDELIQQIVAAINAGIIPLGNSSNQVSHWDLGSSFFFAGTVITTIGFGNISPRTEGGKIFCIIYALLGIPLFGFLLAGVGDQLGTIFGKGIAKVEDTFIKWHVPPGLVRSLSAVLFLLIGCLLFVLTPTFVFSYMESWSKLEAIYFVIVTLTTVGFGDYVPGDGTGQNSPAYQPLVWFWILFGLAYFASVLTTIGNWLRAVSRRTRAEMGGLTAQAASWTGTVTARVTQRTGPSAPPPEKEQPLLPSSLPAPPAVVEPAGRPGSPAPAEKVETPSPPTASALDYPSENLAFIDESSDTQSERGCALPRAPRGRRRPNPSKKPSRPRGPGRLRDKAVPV

K2P2.1(TREK-1) = target: T2, K2P2.1(TREK-1) (Mus musculus, UniProt P97438); assay: TEVC of K2P2.1(TREK-1) in Xenopus oocytes; format: cell-based; set-up: expressed in transfected cells; host or cells: Xenopus laevis oocytes injected with mRNA made from pGEMHE/pMO
T2 sequence (P97438 1-411 isoform P97438-2): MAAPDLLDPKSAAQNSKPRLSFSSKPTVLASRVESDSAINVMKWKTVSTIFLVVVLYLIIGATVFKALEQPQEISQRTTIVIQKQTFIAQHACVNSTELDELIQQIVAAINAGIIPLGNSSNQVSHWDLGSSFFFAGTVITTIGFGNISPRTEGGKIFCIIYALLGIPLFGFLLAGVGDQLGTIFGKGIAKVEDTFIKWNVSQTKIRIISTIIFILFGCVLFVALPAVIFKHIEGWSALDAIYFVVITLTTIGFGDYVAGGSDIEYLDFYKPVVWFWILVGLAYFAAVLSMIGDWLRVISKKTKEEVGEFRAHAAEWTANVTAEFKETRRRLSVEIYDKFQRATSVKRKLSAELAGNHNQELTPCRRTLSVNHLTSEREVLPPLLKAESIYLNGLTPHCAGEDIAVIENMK
Text: Constructs for murine K2P channels, including K2P2.1(TREK-1) (Gene ID 16526), K2P10.1(TREK-2) (Gene ID 72258), K2P4.1(TRAAK) (Gene ID 16528), K2P5.1(TASK-2) (Gene ID 16529), K2P3.1(TASK-1) (Gene ID 16527), K2P9.1(TASK-3) (Gene ID 223604), and K2P18.1(TRESK) (Gene ID 332396) in pGEMHE/pMO, were used for Xenopus oocyte experiments as previously described.[10],[26] Murine K2P2.1(TREK-1) (Gene ID 16526) was expressed in HEK-293 cells using a pIRES-EGFP construct as previously described.[26] Murine K2P13.1(THIK-1) (Gene ID 217826) and K2P1.1(TWIK-1) (Gene ID 16525) were cloned into pGEMHE/pMO for use in Xenopus oocytes. Chimeras were designed using EMBOSS Needle pairwise sequence alignment tool[58] to match homologous helices in K2P2.1(TREK-1) and K2P4.1(TRAAK) and were assembled using the Gibson assembly method.[59] Chimera boundaries are Thr152 (TREK-1/AAK M2-C), Trp199 (TREK-1/AAK M3-C), Y272 (TREK-1/AAK M4-C), Thr114 (TRAAK/EK-1 M2-C), Trp161 (TRAAK/EK-1 M3-C), and Tyr234 K2P4.1(TRAAK). All sequences were verified using DNA sequencing.
Xenopus laevis oocytes were harvested in accordance with UCSF IACUC protocol AN129690 and digested in calcium-free ND-96 (96 mM NaCl, 2 mM KCl, 3.8 mM MgCl2) immediately following harvest, as previously described.[6],[10] Digested oocytes were maintained in standard ND96 (96 mM NaCl, 2 mM KCl, 1.8 mM CaCl2, 2 mM MgCl2) with antibiotics (100 units mL^–1 penicillin, 100 μg mL^–1 streptomycin, 50 μg mL^–1 gentimycin). Defolliculated stage V–VI oocytes were injected with 0.2–6.0 ng of mRNA in 50 nL, and currents were recorded 24–48 h after injection. mRNA was synthesized from plasmid DNA using mMessage mMachine Kit (T7 promoter, Ambion, Life Technologies) and purified using RNEasy Kit (Qiagen). Injected oocytes were impaled with two standard microelectrodes (0.2–1.0 MΩ) filled with 3 M KCl and subjected to constant perfusion of standard ND96 during recording. Currents were amplified using the GeneClamp 500B (MDS Analytical Technologies) amplifier controlled by the pClamp software (Molecular Devices). Data were digitized at 1 kHz using Digidata 1332A (MDS Analytical Technologies). For all experiments with small molecules, basal currents were evoked using 1 s long ramps from −150 to +50 mV under constant perfusion of ND96. Once stabilized basal currents were recorded, compounds were perfused at various concentrations in standard ND96 and currents were allowed to increase to stabilization before recording final current. Fold activation upon compound application is expressed as I/I0 (0 mV), derived from the current at 0 mV in the presence of compound divided by the basal current at 0 mV in standard ND96 without compound. Data were analyzed and plotted using Graphpad Prism Version 5 (GraphPad Software, San Diego California USA, www.graphpad.com). […] In the case of BL-1249-acid EC50 estimation, upper bound of I/I0 was set to 20 to account for the strong stimulation of BL-1249-acid.

With CS(=O)(=O)Nc1ccc(C(=O)NCc2ccc(Cl)cc2Cl)cc1 [ML335] the EC50 (TREK-1/AAK M3-C) was > 100 µM and the “effect on K2P2.1(TREK-1) current (in words)” value (K2P2.1(TREK-1); dose-response) was “robustly responded”.

For c1ccc(-c2nnn[nH]2)c(Nc2cccc3c2CCCC3)c1 [BL-1249, (5,6,7,8-tetrahydro-naphthalen-1-yl)-[2-(1H-tetrazol-5-yl)-phenyl]-amine], the EC50 (TREK-1/AAK M3-C) was 28 ± 2 µM, the “K2P2.1(TREK-1) current response” value (K2P2.1(TREK-1); extracellular application of 10 μM) was “clear activation responses” and the EC50 (K2P2.1(TREK-1); extracellular application, fold activation I/I0 at 0 mV) was 5.5 ± 1.2 µM.
